Earlier results as cited in patent US7618965B2, “(Arylamidoanilino)nitroethylene compounds” (OSI Pharmaceuticals, Inc., priority 2004, dated 2009).
Counter-ions that a name gives are not always drawn.

How the values were obtained:
[1] = test system: MO7e human leukemia cells
[2] = test system: MO7e human leukemia cells; remark: listed apart in the source

For `Cc1ccc(NC(=O)c2ccc(CN3CCN(C)CC3)cc2)cc1Nc1nccc(-c2cccnc2)n1` [Gleevec, imatinib mesylate], the “Kit ligand-stimulated growth of MO7e cells” value [1] is given as “inhibited” and the “GM-CSF stimulated growth of MO7e cells” value [2] is given as “not affected”.
